Experimental data taken from ChEMBL document CHEMBL3352097, “Small molecule inhibitors targeting activator protein 1 (AP-1)” (J Med Chem, 2014).
Bridge positions count the residues as written; N and C are the ends. Peptide text beside a SMILES is read from it.

Tests used:
[1] = biological target: Nuclear factor NF-kappa-B complex (Homo sapiens, UniProt Q00653+P19838+Q04206); experiment: Inhibition of NF-kappaB-mediated transcriptional activation in human Jurkat cells by luciferase reporter gene assay; format: cell-based
Nuclear factor NF-kappa-B complex, sequence (P19838 1-433 limits assumed): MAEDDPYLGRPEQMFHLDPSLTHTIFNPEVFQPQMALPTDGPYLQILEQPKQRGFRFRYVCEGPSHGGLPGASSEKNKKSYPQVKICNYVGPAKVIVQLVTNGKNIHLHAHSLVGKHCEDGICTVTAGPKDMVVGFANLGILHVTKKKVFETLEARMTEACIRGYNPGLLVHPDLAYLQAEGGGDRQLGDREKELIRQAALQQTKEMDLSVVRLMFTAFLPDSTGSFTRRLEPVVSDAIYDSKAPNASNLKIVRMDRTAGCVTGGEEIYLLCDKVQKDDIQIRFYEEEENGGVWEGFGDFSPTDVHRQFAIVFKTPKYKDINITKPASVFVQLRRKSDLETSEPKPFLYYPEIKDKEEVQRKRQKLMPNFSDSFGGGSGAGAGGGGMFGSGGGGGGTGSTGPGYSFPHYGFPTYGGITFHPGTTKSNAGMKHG
Nuclear factor NF-kappa-B complex, sequence (Q00653 1-454 limits assumed): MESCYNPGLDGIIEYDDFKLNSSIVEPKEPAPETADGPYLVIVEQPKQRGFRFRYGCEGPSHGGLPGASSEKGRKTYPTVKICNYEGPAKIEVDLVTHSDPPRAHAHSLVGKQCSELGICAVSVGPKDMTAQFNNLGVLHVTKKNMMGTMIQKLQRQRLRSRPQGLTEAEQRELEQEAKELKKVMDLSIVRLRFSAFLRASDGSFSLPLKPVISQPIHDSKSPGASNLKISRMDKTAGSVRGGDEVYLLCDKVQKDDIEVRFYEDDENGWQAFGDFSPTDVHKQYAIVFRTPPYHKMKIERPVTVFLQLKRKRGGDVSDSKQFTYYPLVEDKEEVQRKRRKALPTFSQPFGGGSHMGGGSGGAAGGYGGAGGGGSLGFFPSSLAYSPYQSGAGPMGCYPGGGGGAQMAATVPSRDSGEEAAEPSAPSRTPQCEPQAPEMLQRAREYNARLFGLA
Nuclear factor NF-kappa-B complex, sequence (Q04206 whole entry): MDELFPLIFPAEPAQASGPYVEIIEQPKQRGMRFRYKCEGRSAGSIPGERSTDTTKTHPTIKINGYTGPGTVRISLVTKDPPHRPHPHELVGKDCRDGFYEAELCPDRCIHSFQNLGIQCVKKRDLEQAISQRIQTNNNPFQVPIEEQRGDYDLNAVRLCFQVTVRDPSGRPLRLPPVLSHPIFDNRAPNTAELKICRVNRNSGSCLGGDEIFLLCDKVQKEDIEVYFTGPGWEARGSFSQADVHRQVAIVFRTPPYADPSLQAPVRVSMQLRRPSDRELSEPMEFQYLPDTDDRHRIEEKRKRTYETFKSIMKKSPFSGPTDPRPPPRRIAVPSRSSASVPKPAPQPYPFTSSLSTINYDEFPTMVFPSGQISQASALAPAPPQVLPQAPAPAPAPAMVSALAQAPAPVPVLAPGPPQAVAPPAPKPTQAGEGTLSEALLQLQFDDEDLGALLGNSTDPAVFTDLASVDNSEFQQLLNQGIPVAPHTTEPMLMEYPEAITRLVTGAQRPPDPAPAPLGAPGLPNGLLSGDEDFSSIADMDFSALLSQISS

[2] = biological target: T1, Transcription factor Jun (Homo sapiens, UniProt P05412); experiment: Inhibition of AP-1-mediated transcriptional activation in human Jurkat cells by luciferase reporter gene assay; format: cell-based
T1 sequence (P05412 whole entry): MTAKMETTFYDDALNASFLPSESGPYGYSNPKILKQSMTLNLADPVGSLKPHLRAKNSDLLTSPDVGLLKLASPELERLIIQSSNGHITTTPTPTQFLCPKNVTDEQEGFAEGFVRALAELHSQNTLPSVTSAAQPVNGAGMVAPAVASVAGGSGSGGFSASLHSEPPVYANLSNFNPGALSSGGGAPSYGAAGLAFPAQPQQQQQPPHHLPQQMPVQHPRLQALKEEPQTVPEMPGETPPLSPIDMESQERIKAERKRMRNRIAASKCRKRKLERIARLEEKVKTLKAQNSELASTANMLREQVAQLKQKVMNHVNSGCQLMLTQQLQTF

[3] = biological target: T1, Transcription factor Jun; experiment: Inhibition of AP-1 (unknown origin) expressed in TPA-stimulated mouse NIH3T3 cells by luciferase reporter gene assay; format: cell-based
[4] = biological target: T1, Transcription factor Jun; experiment: Inhibition of AP-1 bZIP domain DNA binding activity (unknown origin) by ELISA
[5] = biological target: T1, Transcription factor Jun; experiment: Inhibition of AP-1-mediated transcriptional activation in human HeLa cells at 1 ug/ml; format: cell-based
[6] = biological target: T1, Transcription factor Jun; experiment: Inhibition of AP-1-mediated transcriptional activation in human HeLa cells at 10 ug/ml; format: cell-based
[7] = biological target: T1, Transcription factor Jun; experiment: Inhibition of UVB-induced AP-1 activation (unknown origin) by cell-based assay
[8] = biological target: Transcription factor Jun (Mus musculus) (UniProt P05627); experiment: Inhibition of AP-1-mediated transcriptional activation in lipopolysaccharide-stimulated mouse RAW 264.7 cells assessed ratio of luciferase activity normalized to Renilla luciferase activity by luciferase reporter gene assay
Transcription factor Jun (Mus musculus), sequence (P05627 whole entry): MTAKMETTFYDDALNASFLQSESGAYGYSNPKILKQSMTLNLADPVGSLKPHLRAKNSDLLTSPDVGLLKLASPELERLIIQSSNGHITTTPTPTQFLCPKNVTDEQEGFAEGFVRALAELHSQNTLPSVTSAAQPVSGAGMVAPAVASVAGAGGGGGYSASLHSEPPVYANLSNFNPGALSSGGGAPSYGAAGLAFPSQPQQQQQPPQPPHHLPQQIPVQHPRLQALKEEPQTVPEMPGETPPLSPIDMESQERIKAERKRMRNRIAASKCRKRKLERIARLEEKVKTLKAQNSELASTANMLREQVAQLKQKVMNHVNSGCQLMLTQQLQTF

[9] = biological target: Transcription factor AP1 (Homo sapiens, UniProt P01100+P05412); experiment: Inhibition of Fos-Jun dimer formation (unknown origin) by EMSA method; format: protein-complex assay
Transcription factor AP1, sequence (P05412 whole entry): as the sequence (P05412 whole entry) above
Transcription factor AP1, sequence (P01100 whole entry): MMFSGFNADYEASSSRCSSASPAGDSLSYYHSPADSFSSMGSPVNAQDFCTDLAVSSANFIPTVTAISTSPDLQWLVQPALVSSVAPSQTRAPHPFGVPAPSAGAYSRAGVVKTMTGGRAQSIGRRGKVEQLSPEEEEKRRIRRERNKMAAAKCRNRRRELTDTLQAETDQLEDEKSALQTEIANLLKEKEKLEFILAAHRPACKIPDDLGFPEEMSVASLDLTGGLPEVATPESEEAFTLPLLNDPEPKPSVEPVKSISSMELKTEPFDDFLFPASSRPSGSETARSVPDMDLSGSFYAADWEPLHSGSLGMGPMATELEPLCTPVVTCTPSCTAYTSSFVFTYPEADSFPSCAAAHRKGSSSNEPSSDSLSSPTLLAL

[10] = biological target: T1, Transcription factor Jun; experiment: Inhibition of AP-1 (unknown origin) by FRET assay
[11] = biological target: T1, Transcription factor Jun; experiment: Inhibition of AP-1-mediated transcriptional activation in HEK293 cells by luciferase reporter gene assay; format: cell-based

Compound `O=C(Nc1cc(C(F)(F)F)cc(C(F)(F)F)c1)c1nnc(Cl)cc1C(F)(F)F` has an IC50 [1] of 10000 nM and an IC50 [2] of 10000 nM.
Compound `O=C(O)CCc1cc(C(=O)c2ccc(OC3CCCC3)cc2O)ccc1OCc1ccc2c(O)noc2c1` has an IC50 [3] of 10000 nM and an IC50 [4] of 10000 nM.
With `CC(=O)N[C@H]1CSSC[C@@H](C(N)=O)NC(=O)CNC(=O)[C@H](CC(=O)O)NC(=O)[C@H](C)NC(=O)[C@H](CC(C)C)NC(=O)[C@H](CC(=O)O)NC(=O)[C@H](CC(C)C)NC(=O)[C@H](CCC(N)=O)NC(=O)CNC1=O` (Ac-CGQLDLADGC-NH2; disulfide 1-10) the IC50 [4] was 64000 nM.
`O=C(Nc1cc(Cl)cc(Cl)c1)c1cc(Cl)ccc1O` was tested, and the inhibition [5] was 22.7% and the inhibition [6] was 74.8%.
In the case of `COC(=O)C1=CO[C@@H](O[C@@H]2O[C@H](CO)[C@@H](O)[C@H](O)[C@H]2O)[C@H]2[C@H]1C(C)=C[C@@]2(O)C(=O)O/C=C(\C(=O)O)c1ccc(O)c(OC)c1`, the IC50 [7] is reported as 69600 nM.
Compound `O=C1Nc2cc(C(F)(F)F)ccc2Nc2nc(Cl)ncc21` has an IC50 [2] of 10000 nM.
With `C[C@@]12CCC[C@@](C)(C(=O)O)[C@H]1CC[C@]13CC(=O)O[C@](C)(C1)[C@H](O)C[C@H]32` the Ratio [8] was 2.73.
Work on `O=C(Nc1ccc(C(F)(F)F)cc1C(F)(F)F)c1cc(C(F)(F)F)nc(Cl)n1` yielded an IC50 [2] greater than 10000 nM.
Work on `Cc1ccc(/C=C/C(=O)/C=C(O)/C=C/c2ccc(C)cc2)cc1` yielded an IC50 [9] of 8980 nM.
`O=C(Nc1cc(C(F)(F)F)cc(C(F)(F)F)c1)c1cnc(Cl)nc1C(F)(F)F` gave an IC50 [1] of 50 nM and an IC50 [2] of 50 nM.
`C[C@@]12CC[C@H]3[C@]4(C)CCC[C@@](C)(C(=O)O)[C@H]4C[C@H](O)[C@]3(CC(=O)O1)C2` gave a Ratio [8] of 2.39.
In the case of `CCOC(=O)c1cnc(NN2C(=O)C=C(C)C2=O)nc1CC`, the IC50 [2] is reported as 400 nM.
`CCOC(=O)c1cnc(-c2cccs2)nc1NN1C(=O)C=C(C)C1=O` was tested, and the IC50 [1] was 20 nM and the IC50 [2] was 20 nM.
`CC[C@](C)(O)C(=O)O[C@H]1C(=O)O[C@@H]2C[C@H]3C(C)=CC(=O)[C@@H](O)[C@]3(C)[C@H]3[C@@]4(O)OC[C@]32[C@@H]1[C@@H](C)[C@H]4O` [GLAUCARUBINONE] was tested, and the EC50 [10] was 1490 nM.
For `O=C(Nc1cc(Cl)cc(Cl)c1)c1cc(I)ccc1O`, the inhibition [6] was 75.4%.
`O=C(Nc1cc(C(F)(F)F)cc(C(F)(F)F)c1)c1cnc(Cl)nc1Cl` gave an IC50 [1] of 600 nM.
Compound `C[C@@]12CC[C@H]3[C@]4(C)CCC[C@@](C)(C(=O)O)[C@H]4C[C@H](O)[C@]3(CC1=O)C2` has a Ratio [8] of 2.69.
`C[C@@]12CC[C@@H]3[C@@](CC[C@H]4[C@@]3(C)[C@@H](O)CC[C@@]4(C)C(=O)O)(COC1=O)C2` showed a Ratio [8] of 2.66.
With `O=C(Nc1cc(Cl)cc(Cl)c1)c1cc(Br)ccc1O` the inhibition [5] was 39.3% and the inhibition [6] was 83.8%.
In the case of `CCOC(=O)c1cnc(N(C)N2C(=O)C=C(C)C2=O)nc1CC`, the IC50 [2] is reported as 35 nM.
Work on `CC1=CC(=O)N(Nc2ncc(C(=O)OC(C)(C)C)c(C(F)(F)F)n2)C1=O` yielded an IC50 [2] of 210 nM.
`CCOC(=O)c1cnc(C(F)(F)F)nc1NN1C(=O)C=C(C)C1=O` was tested, and the IC50 [1] was 1000 nM and the IC50 [2] was 1000 nM.
`CC(C)COc1ccc(C(=O)c2ccc(OCC(C)C)c(CCC(=O)O)c2)cc1` gave an IC50 [3] of 5000 nM.
Work on `COc1cccc(/C=C/C(=O)/C=C(O)/C=C/c2cccc(OC)c2)c1` yielded an IC50 [9] of 5400 nM.
With `CCc1nc(NN2C(=O)C=C(C)C2=O)ncc1-c1coc(C)n1` the IC50 [2] was 830 nM.
With `CNc1nc(C)c(-c2nc3ccccc3c(=O)n2-c2ccccc2C)s1` the IC50 [11] was 5500 nM.
Work on `CC1=CC(=O)N(Nc2ncc(C(=O)c3ccccc3)c(C(F)(F)F)n2)C1=O` yielded an IC50 [2] of 98 nM.
Work on `Cc1nc(Cl)ncc1C(=O)Nc1cc(C(F)(F)F)cc(C(F)(F)F)c1` yielded an IC50 [1] of 50 nM.
With `C[C@@]12CC[C@@H]3[C@@](CC[C@H]4[C@@]3(C)CCC[C@@]4(C)C(=O)O)(C/C1=N\O)C2` the Ratio [8] was 4.87.
For `C[C@@]12CCC[C@@](C)(C(=O)O)[C@H]1CC[C@@]13CC(=O)O[C@@](CO)(CC[C@H]12)C3`, the Ratio [8] was 2.58.
With `O=C(Nc1cc(C(F)(F)F)cc(C(F)(F)F)c1)c1cc(Cl)ccc1O` the inhibition [5] was 42.4% and the inhibition [6] was 89.1%.
`O=C(Nc1cc(C(F)(F)F)cc(C(F)(F)F)c1)c1cnc(Cl)nc1-c1ccccc1` showed an IC50 [1] of 400 nM and an IC50 [2] of 400 nM.
`O=C(Nc1cc(C(F)(F)F)cc(C(F)(F)F)c1)c1cc(I)ccc1O` was tested, and the inhibition [5] was 25.4% and the inhibition [6] was 82.4%.
